Results taken from patent publication US20020035061A1, “COMPOSITIONS AND METHODS FOR TREATING INFECTIONS USING CATIONIC PEPTIDES ALONE OR IN COMBINATION WITH ANTIBIOTICS” (priority 1996, published 2002).
Peptide text beside a SMILES is read from it.

Legend:
Test in all cases: microbe, parasite or virus in culture
Format in all cases: cell-based
[1] = test system: inherently resistant microorganisms
[2] = test system: microorganisms with acquired resistance; conditions: for Peptide MIC: in µg/mL
[3] = test system: vancomycin / teicoplanin resistant enterococci
S. aureus = S. aureus SA25
bacterial isolates = conditions: for Peptide MIC Alone: Tobramycin section
[4] = S. aureus SA014 (also SA014 MRSA)
[5] = S. aureus SA025 (also SA025 MRSA)

CC[C@H](C)[C@H](NC(=O)[C@H](C)NC(=O)[C@@H]1CCCN1C(=O)CNC(=O)[C@H](C)NC(=O)[C@@H](NC(=O)[C@H](CCCCN)NC(=O)[C@H](CC(C)C)NC(=O)CNC(=O)[C@H](CO)NC(=O)[C@H](CC(C)C)NC(=O)[C@@H](NC(=O)[C@H](CCCNC(=N)N)NC(=O)[C@H](CCCNC(=N)N)NC(=O)[C@H](Cc1c[nH]c2ccccc12)NC(=O)[C@H](Cc1c[nH]c2ccccc12)NC(=O)[C@H](CCCCN)NC(=O)[C@@H](N)CCCCN)C(C)C)[C@@H](C)O)C(=O)N[C@@H](CCC(N)=O)C(=O)N[C@@H](CO)C(=O)N[C@H](C(=O)N[C@@H](CC(C)C)C(=O)N[C@@H](CC(N)=O)C(=O)N[C@@H](CCCCN)C(=O)O)C(C)C [MBI 21A1] (H-KKWWRRVLSGLKTAGPAIQSVLNK-OH; N-terminus and C-terminus assumed) was tested, and the “Peptide MIC Alone” value ([1]; E. coli, Mupirocin section) was 2 µg/mL, the FIC ([1]; peptide + Tobramycin, S. aureus) was 0.50 and the “Peptide MIC + Tobramycin” value ([2]; P. aeruginosa PA022) was 0.125 µg/mL. For the same compound, the “Tobramycin MIC + Peptide” value ([2]; P. aeruginosa PA022) was 4 µg/mL, the “Peptide MIC Alone” value ([2]; P. aeruginosa PA022, Tobramycin section) was 4 µg/mL and the “Peptide MIC + Tobramycin” value ([2]; P. aeruginosa PA026) was 0.125 µg/mL. For the same compound, the “Tobramycin MIC + Peptide” value ([2]; P. aeruginosa PA026) was 4 µg/mL, the “Peptide MIC Alone” value ([2]; P. aeruginosa PA026, Tobramycin section) was 16 µg/mL and the “Peptide MIC + Tobramycin” value ([2]; P. aeruginosa PA030) was 8 µg/mL. The “Tobramycin MIC + Peptide” value ([2]; P. aeruginosa PA030) was 0.25 µg/mL, the “Peptide MIC Alone” value ([2]; P. aeruginosa PA030, Tobramycin section) was 16 µg/mL and the “Peptide MIC + Tobramycin” value ([2]; P. aeruginosa PA032) was 32 µg/mL. The “Tobramycin MIC + Peptide” value ([2]; P. aeruginosa PA032) was 1 µg/mL, the “Peptide MIC Alone” value ([2]; P. aeruginosa PA032, Tobramycin section) was 64 µg/mL and the “Ciprofloxacin MIC + Peptide” value ([2]; P. aeruginosa PA41) was 1 µg/mL. The “Peptide MIC + Ciprofloxacin” value ([2]; P. aeruginosa PA41) was 4 µg/mL, the “Peptide MIC Alone” value ([2]; P. aeruginosa PA41, Ciprofloxacin section) was 16 µg/mL and the “Ciprofloxacin MIC + Peptide” value ([2]; P. aeruginosa PA77) was 1 µg/mL. For the same compound, the “Peptide MIC + Ciprofloxacin” value ([2]; P. aeruginosa PA77) was 16 µg/mL, the “Peptide MIC Alone” value ([2]; P. aeruginosa PA77, Ciprofloxacin section) was 32 µg/mL and the “Peptide MIC” value ([2]; P. aeruginosa, combination with Ciprofloxacin) was 16. For the same compound, the “Peptide MIC” value ([2]; S. aureus, combination with Ciprofloxacin) was 2, the “Peptide MIC” value ([2]; S. aureus, combination with Mupirocin) was 16 and the “Peptide MIC + Tobramycin” value ([2]; S. maltophilia SMA029) was 32 µg/mL. The “Tobramycin MIC + Peptide” value ([2]; S. maltophilia SMA029) was 4 µg/mL, the “Peptide MIC Alone” value ([2]; S. maltophilia SMA029, Tobramycin section) was 128 µg/mL and the “Peptide MIC + Tobramycin” value ([2]; S. maltophilia SMA030) was 32 µg/mL. The “Tobramycin MIC + Peptide” value ([2]; S. maltophilia SMA030) was 4 µg/mL, the “Peptide MIC Alone” value ([2]; S. maltophilia SMA030, Tobramycin section) was over 128 µg/mL and the “Peptide MIC + Vancomycin” value ([3]; E. faecalis EFS012) was 2 µg/mL. The “Vancomycin MIC + Peptide” value ([3]; E. faecalis EFS012) was 4 µg/mL, the “Peptide MIC + Vancomycin” value ([3]; E. faecalis EFS013) was 2 µg/mL and the “Vancomycin MIC + Peptide” value ([3]; E. faecalis EFS013) was 4 µg/mL. For the same compound, the “Vancomycin MIC + Peptide” value ([3]; in combination with the labelled peptide, E. faecium EFM010) was 4 µg/mL, the “Peptide MIC + Vancomycin” value ([3]; in combination with vancomycin, E. faecium EFM010) was 16 µg/mL and the “Ciprofloxacin MIC + Peptide” value (S. aureus) was 0.125 µg/mL. For the same compound, the “Peptide MIC + Ciprofloxacin” value (S. aureus) was 4 µg/mL, the “Peptide MIC + Tobramycin” value (bacterial isolates; B. cepacia BC001) was 0.25 µg/mL and the “Tobramycin MIC + Peptide” value (bacterial isolates; B. cepacia BC001) was 32 µg/mL. The “Peptide MIC Alone” value (bacterial isolates; B. cepacia BC001) was over 128 µg/mL, the “Mupirocin MIC + Peptide” value (bacterial isolates; E. coli ECO3) was 3 µg/mL and the “Peptide MIC + Mupirocin” value (bacterial isolates; E. coli ECO3) was 2 µg/mL. The “Mupirocin MIC + Peptide” value (bacterial isolates; E. coli SBECO2) was 30 µg/mL, the “Peptide MIC + Mupirocin” value (bacterial isolates; E. coli SBECO2) was 2 µg/mL and the “Peptide MIC + Vancomycin” value (bacterial isolates; E. faecalis EFS007) was 1 µg/mL. For the same compound, the “Vancomycin MIC + Peptide” value (bacterial isolates; E. faecalis EFS007) was 1 µg/mL, the “Peptide MIC + Vancomycin” value (bacterial isolates; E. faecalis EFS012) was 1 µg/mL and the “Vancomycin MIC + Peptide” value (bacterial isolates; E. faecalis EFS012) was 16 µg/mL. The “Peptide MIC + Vancomycin” value (bacterial isolates; E. faecalis EFS013) was 1 µg/mL, the “Vancomycin MIC + Peptide” value (bacterial isolates; E. faecalis EFS013) was 32 µg/mL and the “Peptide MIC + Vancomycin” value (bacterial isolates; E. faecium EFM010) was 2 µg/mL. The “Vancomycin MIC + Peptide” value (bacterial isolates; E. faecium EFM010) was 32 µg/mL, the “Ciprofloxacin MIC + Peptide” value (bacterial isolates; P. aeruginosa PA4) was 0.125 µg/mL and the “Peptide MIC + Ciprofloxacin” value (bacterial isolates; P. aeruginosa PA4) was 32 µg/mL. For the same compound, the “Peptide MIC + Tobramycin” value (bacterial isolates; P. aeruginosa PA022) was 0.125 µg/mL, the “Tobramycin MIC + Peptide” value (bacterial isolates; P. aeruginosa PA022) was 4 µg/mL and the “Peptide MIC Alone” value (bacterial isolates; P. aeruginosa PA022) was 4 µg/mL. The “Peptide MIC + Tobramycin” value (bacterial isolates; P. aeruginosa PA026) was 0.125 µg/mL, the “Tobramycin MIC + Peptide” value (bacterial isolates; P. aeruginosa PA026) was 4 µg/mL and the “Peptide MIC Alone” value (bacterial isolates; P. aeruginosa PA026) was 16 µg/mL. For the same compound, the “Ciprofloxacin MIC + Peptide” value (bacterial isolates; P. aeruginosa PA41) was 1 µg/mL, the “Peptide MIC + Ciprofloxacin” value (bacterial isolates; P. aeruginosa PA41) was 4 µg/mL and the “Mupirocin MIC + Peptide” value (bacterial isolates; P. aeruginosa SBPA1) was 30 µg/mL. For the same compound, the “Peptide MIC + Mupirocin” value (bacterial isolates; P. aeruginosa SBPA1) was 32 µg/mL, the “Peptide MIC + Tobramycin” value (bacterial isolates; [4]) was 16 µg/mL and the “Tobramycin MIC + Peptide” value (bacterial isolates; [4]) was 0.125 µg/mL. For the same compound, the “Peptide MIC Alone” value (bacterial isolates; [4]) was 32 µg/mL, the “Ciprofloxacin MIC + Peptide” value (bacterial isolates; S. aureus SA25) was 0.125 µg/mL and the “Peptide MIC + Ciprofloxacin” value (bacterial isolates; S. aureus SA25) was 4 µg/mL. The “Peptide MIC + Tobramycin” value (bacterial isolates; [5]) was 1 µg/mL, the “Tobramycin MIC + Peptide” value (bacterial isolates; [5]) was 0.125 µg/mL and the “Peptide MIC Alone” value (bacterial isolates; [5]) was 2 µg/mL. The “Ciprofloxacin MIC + Peptide” value (bacterial isolates; S. aureus SA93) was 8 µg/mL, the “Peptide MIC + Ciprofloxacin” value (bacterial isolates; S. aureus SA93) was 1 µg/mL and the “Peptide MIC + Tobramycin” value (bacterial isolates; S. haemolyticus SHA001) was 4 µg/mL. The “Tobramycin MIC + Peptide” value (bacterial isolates; S. haemolyticus SHA001) was 0.5 µg/mL, the “Peptide MIC Alone” value (bacterial isolates; S. haemolyticus SHA001) was 16 µg/mL and the “Peptide MIC + Tobramycin” value (bacterial isolates; S. haemolyticus SHA005) was 4 µg/mL. The “Tobramycin MIC + Peptide” value (bacterial isolates; S. haemolyticus SHA005) was 1 µg/mL, the “Peptide MIC Alone” value (bacterial isolates; S. haemolyticus SHA005) was 32 µg/mL and the “Peptide MIC + Tobramycin” value (bacterial isolates; S. maltophilia SMA029) was 32 µg/mL. The “Tobramycin MIC + Peptide” value (bacterial isolates; S. maltophilia SMA029) was 4 µg/mL, the “Peptide MIC Alone” value (bacterial isolates; S. maltophilia SMA029) was 128 µg/mL and the “Peptide MIC + Tobramycin” value (bacterial isolates; S. maltophilia SMA030) was 32 µg/mL. The “Tobramycin MIC + Peptide” value (bacterial isolates; S. maltophilia SMA030) was 4 µg/mL, the “Peptide MIC Alone” value (bacterial isolates; S. maltophilia SMA030) was over 128 µg/mL and the FIC (bacterial isolates; peptide + Ciprofloxacin, P. aeruginosa PA4) was 0.50. The FIC (bacterial isolates; peptide + Ciprofloxacin, P. aeruginosa PA41) was 0.50, the FIC (bacterial isolates; peptide + Ciprofloxacin, S. aureus SA25) was 0.16 and the FIC (bacterial isolates; peptide + Ciprofloxacin, S. aureus SA93) was 0.50. The FIC (bacterial isolates; peptide + Mupirocin, E. coli ECO3) was 0.28, the FIC (bacterial isolates; peptide + Mupirocin, E. coli SBECO2) was 0.28 and the FIC (bacterial isolates; peptide + Mupirocin, P. aeruginosa SBPA1) was 0.53. The FIC (bacterial isolates; peptide + Tobramycin, B. cepacia BC001) was 0.25, the FIC (bacterial isolates; peptide + Tobramycin, P. aeruginosa PA022) was 0.53 and the FIC (bacterial isolates; peptide + Tobramycin, P. aeruginosa PA026) was 0.51. The FIC (bacterial isolates; peptide + Tobramycin, S. aureus SA014 (also SA014 MRSA)) was 0.50, the FIC (bacterial isolates; peptide + Tobramycin, S. aureus SA025 (also SA025 MRSA)) was 0.50 and the FIC (bacterial isolates; peptide + Tobramycin, S. haemolyticus SHA001) was 0.50. The FIC (bacterial isolates; peptide + Tobramycin, S. haemolyticus SHA005) was 0.38, the FIC (bacterial isolates; peptide + Tobramycin, S. maltophilia SMA029) was 0.28 and the FIC (bacterial isolates; peptide + Tobramycin, S. maltophilia SMA030) was 0.16. The FIC (bacterial isolates; peptide + Vancomycin, E. faecalis EFS007) was 0.56, the FIC (bacterial isolates; peptide + Vancomycin, E. faecalis EFS012) was 0.16 and the FIC (bacterial isolates; peptide + Vancomycin, E. faecalis EFS013) was 0.28. For the same compound, the FIC (bacterial isolates; peptide + Vancomycin, E. faecium EFM010) was 0.56.
